Values of other authors as cited in article PMC12347832, “Multi-Component Synthesis of New Fluorinated-Pyrrolo[3,4-b]pyridin-5-ones Containing the 4-Amino-7-chloroquinoline Moiety and In Vitro–In Silico Studies Against Human SARS-CoV-2” (International Journal of Molecular Sciences, 2025).

Test system: SARS-CoV-2
Details: cited from earlier work

CCN(CC)CCCC(C)Nc1ccnc2cc(Cl)ccc12 (stereo not shown) [Chloroquine]
IC50: 1130 nM
